“And” between values parts separate entries of the source, which are not always exact repeats. Equal values may be shown once.

Data set [1] is described as follows: Stability of dapsone oral suspension. It is filed as physicochemical. The note with it: refrigeration at 4° C.
Data set [2] concerns patients with acute brain stroke for thrombo-embolism. Kind of data set: Randomized, double-blind, placebo-controlled clinical trial in patients with acute brain stroke, NIH scale. It counts as in vivo, human. Here is the method:
This study evaluated the neuroprotector effect of dapsone in patients that, having suffered an acute brain stroke for thrombo-embolism, were admitted to the Emergency Services of the National Institute of Neurology and Neurosurgery “Manuel Velasco Suarez”. Dapsone was administered in a single dose of 200 mg in suspension, orally. […] Dapsone was administered blinded to 15 patients, while other 15 patients were administered with an anti-acid suspension, as a placebo medication. Patients were randomly allocated into one of the treatment groups, using random numbers, generated by a pocket calculator. Both medications were administered during the first twelve hours after the brain stroke. As result of these procedures, the clinical trial was randomized, double-blind and placebo-controlled. The evaluation of clinical signs and symptoms was performed in blind by an expert neurologist, with the NIH scale, that quantifies the intensity of disabilities caused by the brain stroke. Said scale was applied at the time the patient entered the study (day zero) and 2, 6 and 30 days after the brain stroke. A stroke is considered as moderately severe or severe, when the NIH rated a value higher than seven. The NIH scale results in the two groups of patients were statistically analyzed with analysis of variance analysis (ANOVA) using as co-variables the NIH scale at the admittance day (day zero), as well as the gender, age, blood pressure and other important clinical variables for the patient's performance. The results in patients with acute thrombo-embolic brain stroke, are shown in FIG. 3, which presents the scores of the neurological scale (NIH) as a function of time (in days) after administering dapsone or the placebo. The results are expressed as the average of 15 patients per group +/−the standard error.

The test system of data set [3] is brain stroke model produced by occlusion of the middle cerebral artery. As to the kind of experiment: Ischemic lesion volume (histology) in rats 96 hours after occlusion of the middle cerebral artery. To be noted: for reduction of ischemic lesion volume in comparison with the control group: 96 hours. It is filed as in vivo, rat.
Procedure: Dapsone was evaluated as neuroprotector in the brain stroke model produced by occlusion of the middle cerebral artery. The drug was suspended in a suitable vehicle. 3 groups of 5 animals each were treated with: Saline isotonic solution (551, control group), Dapsone (12.5 mg/kg) and Dapsone (9.375 mg/kg) injected by intraperitoneal route, 30 minutes after the occlusion of the middle cerebral artery, as described below. The permanent selective brain ischemic was produced in the animals through introducing a suture thread intraluminal through the carotid artery. All animals received continuous anesthesia during the surgical procedure with halotane 1.5%, through a face mask. Animals were placed in dorsal decubitus position, fixed and shaved in the anterior cervical region to make an incision in the middle line from the sternum towards the region of the sternohiodeous muscle, to its side rim, identifying in this side the middle rim of the sternocleidomastoideus and the superficial cervical aponeurosis in its deep leaf, same that was cut to leave exposed the common carotid blow and inside the caudal belly of the digastric. A cutting dissection of the common carotid was performed, until the hypoglose loop. The carotid bifurcation was identified, external carotid and its occipital and thyroid branches, the two latter were joined with mono-filament of 8-0 as well as with electrocoagulation for its later cut. The internal carotid was dissected in a length of approximately 5 mm and at that time the pterigo-palatine artery was identified. A microchip was placed or it was joined with mono-filament 6-0. Once the flux was stopped through these artery affluent, the mono-filament nylon 3-0 was introduced towards the internal carotid artery, through the stub of the external carotid artery, for a length of 17 mm as of the bifurcation. The wound was closed, and the animal was left to recover, with water and food ad libitum. In all cases, ischemia was verified by macroscopic observation and for the position of the thread. At the end of the 96 hours of observation, animals were sacrificed with an overdose of sodium pentobarbital by intraperitoneal route, and their brains were extracted by craniectomy. Once extracted, the brains were fixed with anhydrous alcohol during two weeks. The usual histological process was performed, as well as sections of 10 μm, storing a section each 200 μm. […] The area of each tissue section was determined using a digital analysis system and a photographic amplifier. […] Each section was assessed for 3 determinations: A) total area, including ventriculus B) Ventricular area C) Ischemic area, according to the pathologist's review. […] The results are expressed as the average+/-standard error of 4 independent experiments.
The test system is the same in data set [4]. As to the kind of experiment: Neurological functional scale in rats after permanent occlusion of the middle cerebral artery. It counts as in vivo, rat. Here is the method:
Dapsone was evaluated as neuroprotector in the brain stroke model produced by occlusion of the middle cerebral artery. The drug was suspended in a suitable vehicle.
3 groups of 5 animals each were treated with: Saline isotonic solution (551, control group), Dapsone (12.5 mg/kg) and Dapsone (9.375 mg/kg) injected by intraperitoneal route, 30 minutes after the occlusion of the middle cerebral artery, as described below.
The permanent selective brain ischemic was produced in the animals through introducing a suture thread intraluminal through the carotid artery. All animals received continuous anesthesia during the surgical procedure with halotane 1.5%, through a face mask. […]
During the 96 hours after the ischemic procedure, the animals were neurologically evaluated using a functional scale, each 24 hours.
For the neurological scale and percentage of the lesion volume in rats, the statistical significance was determined with the Kruskal-Wallis test, followed by the U test of MannWhitney.
The results of the neurological evaluation in rats are shown in FIG. 1, where the scores of the neurological test as a function of time can be observed, after producing the stroke in the rats. The results are expressed as the average of 4 independent experiments. […]

Regarding `Nc1ccc(S(=O)(=O)c2ccc(N)cc2)cc1` [dapsone], the “stability of the suspension” value in data set [1] is “stable in refrigeration at 4° C., for up to one month”. For the same compound, the side effects result in data set [2] (for the dose used) is “No side effects”. This compound returned an effective dose in data set [2] (model not stated, printed after the patient result) of 0.013 mmol/kg. Moreover, the “clinical improvement (in words)” value in data set [2] (patients, 200 mg orally) is reported as “significant clinical improvement”. In addition, the “clinical improvement of neurological symptoms (NIH scale), in average” value in data set [2] (patients, single 200 mg oral dose within first twelve hours after stroke) was found to be 67%. Moreover, the “reduction of ischemic lesion volume in comparison with the control group” value was 93% in data set [3] (9.375 mg/kg ip 30 minutes after occlusion); 91% and 90% in data set [3] (12.5 mg/kg ip 30 minutes after occlusion, 12.5 mg/kg). Moreover, the “efficacy to reduce the volume of brain damage produced by the stroke” value in data set [3] (dose of 9.325 mg/kg) was found to be 93%. Besides, in data set [4], the “reduction in the severity of the neurological symptoms in comparison with the control group” value came out at 50%. In addition, in data set [4] (9.375 and 12.5 mg/kg ip, evaluated each 24 hours for 96 hours, p<0.05), the “recovery from the ischemic lesion in the neurological test compared to the control group” value is “recovered better from the ischemic lesion, significantly”.

These data come from US8268893B2, “Use of dapsone as a neuroprotector in cerebral infarction” (Universidad Autonoma Metropolitana, priority 2003, dated 2012).
